Test results: ChEMBL document CHEMBL1201862, “PubChem BioAssay data set” (2004)
Values belong to the molecule of their own block, whether it stands above or below them. Calls of active or inactive are those of the source.

Legend:
[1] = biological target: T1, Alkaline phosphatase, tissue-nonspecific isozyme (Homo sapiens, UniProt P05186); experiment: human TNAP enzyme inhibitors, SAR follow-up, biochemical, luminescent, dose response (AID 1056)
T1 sequence (P05186 whole entry): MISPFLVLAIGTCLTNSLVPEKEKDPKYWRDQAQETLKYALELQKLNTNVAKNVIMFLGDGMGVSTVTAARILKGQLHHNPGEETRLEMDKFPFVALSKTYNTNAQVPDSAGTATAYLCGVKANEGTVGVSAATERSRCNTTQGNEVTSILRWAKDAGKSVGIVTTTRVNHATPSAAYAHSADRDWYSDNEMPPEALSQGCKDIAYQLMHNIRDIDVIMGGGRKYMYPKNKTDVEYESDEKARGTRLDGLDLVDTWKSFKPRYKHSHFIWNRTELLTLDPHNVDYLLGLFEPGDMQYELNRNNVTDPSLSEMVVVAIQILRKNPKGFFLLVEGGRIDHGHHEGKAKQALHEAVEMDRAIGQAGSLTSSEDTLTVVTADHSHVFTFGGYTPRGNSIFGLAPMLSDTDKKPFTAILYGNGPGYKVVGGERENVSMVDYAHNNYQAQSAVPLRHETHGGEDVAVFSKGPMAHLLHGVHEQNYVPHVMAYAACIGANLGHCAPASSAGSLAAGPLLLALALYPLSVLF

[2] = biological target: Alkaline phosphatase, placental type (Homo sapiens, UniProt P05187); experiment: PLAP enzyme inhibitors, confirmation, biochemical, luminescence (AID 1512); type: functional
[3] = biological target: T2, Short transient receptor potential channel 4 (Mus musculus, UniProt Q9QUQ5); experiment: mouse TRPC4 channel activators, dose response, cell-based, HEK293 TRPC4/mu-opioid, Fluo-4 calcium (AID 434937); type: functional
T2 sequence (Q9QUQ5 whole entry): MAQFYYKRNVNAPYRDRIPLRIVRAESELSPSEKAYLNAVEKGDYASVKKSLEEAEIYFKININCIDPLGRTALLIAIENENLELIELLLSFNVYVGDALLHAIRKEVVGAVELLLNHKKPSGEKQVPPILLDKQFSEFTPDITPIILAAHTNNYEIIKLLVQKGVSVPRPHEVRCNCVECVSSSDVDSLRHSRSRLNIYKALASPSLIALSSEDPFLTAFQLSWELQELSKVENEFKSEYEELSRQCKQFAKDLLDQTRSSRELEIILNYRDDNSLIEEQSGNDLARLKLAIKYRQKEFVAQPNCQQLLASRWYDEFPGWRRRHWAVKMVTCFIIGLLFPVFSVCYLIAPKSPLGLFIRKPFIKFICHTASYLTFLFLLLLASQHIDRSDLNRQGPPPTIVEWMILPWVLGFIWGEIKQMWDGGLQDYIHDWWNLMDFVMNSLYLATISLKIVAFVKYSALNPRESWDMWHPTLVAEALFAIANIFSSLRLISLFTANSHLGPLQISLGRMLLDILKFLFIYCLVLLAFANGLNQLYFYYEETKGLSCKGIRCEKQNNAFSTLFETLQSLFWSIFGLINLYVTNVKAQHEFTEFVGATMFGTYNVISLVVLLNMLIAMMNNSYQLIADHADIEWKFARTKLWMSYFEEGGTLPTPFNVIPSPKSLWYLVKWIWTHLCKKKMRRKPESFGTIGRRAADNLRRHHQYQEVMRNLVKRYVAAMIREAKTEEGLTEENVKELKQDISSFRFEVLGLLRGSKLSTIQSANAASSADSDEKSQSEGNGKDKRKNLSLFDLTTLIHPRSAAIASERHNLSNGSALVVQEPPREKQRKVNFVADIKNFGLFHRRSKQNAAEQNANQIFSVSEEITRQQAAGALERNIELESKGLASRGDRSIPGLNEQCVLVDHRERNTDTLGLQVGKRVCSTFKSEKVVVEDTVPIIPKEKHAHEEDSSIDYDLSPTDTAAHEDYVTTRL

[4] = biological target: T3, Ubiquitin-conjugating enzyme E2 N (Homo sapiens, UniProt P61088); type: functional
T3 sequence (P61088 whole entry): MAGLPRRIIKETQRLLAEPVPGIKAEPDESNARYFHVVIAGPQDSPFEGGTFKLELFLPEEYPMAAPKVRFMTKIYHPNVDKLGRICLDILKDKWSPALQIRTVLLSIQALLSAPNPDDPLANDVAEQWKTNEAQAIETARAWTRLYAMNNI

[5] = biological target: T3, Ubiquitin-conjugating enzyme E2 N; type: functional; remark: listed apart in the source
Bcl-2-related protein A1 = biological target: T4, Bcl-2-related protein A1 (Mus musculus, UniProt Q07440); type: functional;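 further: confirmatory dose–response counterscreen on Bfl-1, used to check hits from a UBC13 polyubiquitin inhibitor campaign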
T4 sequence (Q07440 whole entry): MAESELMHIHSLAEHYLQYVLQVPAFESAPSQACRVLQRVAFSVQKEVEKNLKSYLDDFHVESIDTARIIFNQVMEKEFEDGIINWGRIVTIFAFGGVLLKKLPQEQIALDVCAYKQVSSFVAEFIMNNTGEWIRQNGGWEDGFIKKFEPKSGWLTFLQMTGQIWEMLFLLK

[6] = biological target: Peroxisome proliferator-activated receptor gamma/Nuclear receptor coactivator 3 (Homo sapiens, UniProt P37231); experiment: (§1) TR-FRET dose response biochemical High Throughput Screening assay for agonists of the steroid receptor coactivator 3 (SRC-3) recruitment by the peroxisome proliferator-activated receptor gamma (PPAR gamma): non-selective agonists. [Related pubchem assays: 1301 (Confirmation screen.), 1048 (Primary screen.)]; type: functional
[7] = biological target: Peroxisome proliferator-activated receptor gamma/Nuclear receptor coactivator 1 (Homo sapiens, UniProt P37231); experiment: as §1, with “1 (SRC-1)” for “3 (SRC-3)”, “assays (depositor defined):AID1300, AID1808, AID504735, AID631]” for “assays: 1301 (Confirmation screen.), 1048 (Primary screen.)]”; type: protein assay
[8] = biological target: Peroxisome proliferator-activated receptor gamma/Nuclear receptor coactivator 2 (Homo sapiens, UniProt P37231); experiment: TR-FRET dose response biochemical High Throughput Screening assay for agonists of the steroid receptor coactivator 2 (SRC-2) recruitment by the peroxisome proliferator-activated receptor gamma (PPAR gamma): non-selective agonists. [Related pubchem assays: 1297, 1032 ]; type: functional
[9] = biological target: T5, Type-1 angiotensin II receptor (Homo sapiens, UniProt P30556); experiment: AT1 receptor agonists, dose response, selectivity assay for APJ receptor agonist project, cell-based, uHTS hits (AID 488865); type: functional;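 further: beta-arrestin recruitment to AT1 measured by enzyme fragment complementation luminescence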
T5 sequence (P30556 whole entry): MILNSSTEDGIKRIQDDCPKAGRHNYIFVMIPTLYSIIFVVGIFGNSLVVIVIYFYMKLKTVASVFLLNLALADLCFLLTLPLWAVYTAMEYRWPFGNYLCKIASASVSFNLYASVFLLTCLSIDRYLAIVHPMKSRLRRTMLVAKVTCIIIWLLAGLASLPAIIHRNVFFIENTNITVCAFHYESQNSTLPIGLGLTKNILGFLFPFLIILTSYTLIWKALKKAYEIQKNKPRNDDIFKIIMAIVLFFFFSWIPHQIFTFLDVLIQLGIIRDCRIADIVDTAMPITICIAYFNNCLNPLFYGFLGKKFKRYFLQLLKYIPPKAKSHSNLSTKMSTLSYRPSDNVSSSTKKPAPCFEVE

[10] = biological target: DNA dC->dU-editing enzyme APOBEC-3A (Homo sapiens, UniProt P31941); experiment: Dose Response confirmation of small molecule APOBEC3A DNA Deaminase Inhibitors via a fluorescence-based single-stranded DNA deaminase assay. [Related pubchem assays (depositor defined):AID493011, AID493024]; type: functional
[11] = biological target: DNA dC->dU-editing enzyme APOBEC-3G (Homo sapiens, UniProt Q9HC16); type: functional;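 further: Dose-response counterscreen measuring inhibition of APOBEC3G DNA deaminase activity, run while confirming APOBEC3A inhibitors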
DNA dC->dU-editing enzyme APOBEC-3G, sequence (Q9HC16 whole entry): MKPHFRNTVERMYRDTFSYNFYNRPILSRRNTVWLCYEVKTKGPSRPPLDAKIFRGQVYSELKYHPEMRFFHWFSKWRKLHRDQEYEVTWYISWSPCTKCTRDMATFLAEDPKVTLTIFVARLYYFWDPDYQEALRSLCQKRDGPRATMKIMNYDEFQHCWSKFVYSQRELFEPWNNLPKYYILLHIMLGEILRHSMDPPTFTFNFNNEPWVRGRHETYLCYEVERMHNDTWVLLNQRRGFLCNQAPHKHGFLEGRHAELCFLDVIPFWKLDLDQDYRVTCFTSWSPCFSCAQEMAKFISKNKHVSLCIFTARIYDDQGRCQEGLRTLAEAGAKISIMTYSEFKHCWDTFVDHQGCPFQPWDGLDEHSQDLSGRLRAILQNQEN

Alkaline phosphatase, placental type, sequence (P05187 whole entry): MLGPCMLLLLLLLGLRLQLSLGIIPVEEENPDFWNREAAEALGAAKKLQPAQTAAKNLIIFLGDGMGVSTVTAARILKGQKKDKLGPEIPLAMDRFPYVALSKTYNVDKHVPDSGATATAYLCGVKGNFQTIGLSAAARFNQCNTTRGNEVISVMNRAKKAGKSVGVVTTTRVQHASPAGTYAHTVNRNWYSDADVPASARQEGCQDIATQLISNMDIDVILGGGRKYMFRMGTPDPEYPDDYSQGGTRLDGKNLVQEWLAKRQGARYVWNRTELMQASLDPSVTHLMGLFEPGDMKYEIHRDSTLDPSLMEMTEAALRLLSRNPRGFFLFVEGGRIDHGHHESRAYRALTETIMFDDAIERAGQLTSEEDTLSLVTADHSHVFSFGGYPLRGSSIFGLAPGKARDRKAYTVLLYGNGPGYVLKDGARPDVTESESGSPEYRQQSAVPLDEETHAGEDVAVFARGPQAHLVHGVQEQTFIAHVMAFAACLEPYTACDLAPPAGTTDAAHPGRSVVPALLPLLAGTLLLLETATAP
DNA dC->dU-editing enzyme APOBEC-3A, sequence (P31941 whole entry): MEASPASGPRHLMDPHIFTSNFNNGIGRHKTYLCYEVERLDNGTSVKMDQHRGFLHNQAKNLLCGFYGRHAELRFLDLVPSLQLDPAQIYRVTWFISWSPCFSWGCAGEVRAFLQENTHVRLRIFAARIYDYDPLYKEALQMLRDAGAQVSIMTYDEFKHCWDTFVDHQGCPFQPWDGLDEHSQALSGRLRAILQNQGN
Peroxisome proliferator-activated receptor gamma/Nuclear receptor coactivator 3, sequence (P37231 whole entry): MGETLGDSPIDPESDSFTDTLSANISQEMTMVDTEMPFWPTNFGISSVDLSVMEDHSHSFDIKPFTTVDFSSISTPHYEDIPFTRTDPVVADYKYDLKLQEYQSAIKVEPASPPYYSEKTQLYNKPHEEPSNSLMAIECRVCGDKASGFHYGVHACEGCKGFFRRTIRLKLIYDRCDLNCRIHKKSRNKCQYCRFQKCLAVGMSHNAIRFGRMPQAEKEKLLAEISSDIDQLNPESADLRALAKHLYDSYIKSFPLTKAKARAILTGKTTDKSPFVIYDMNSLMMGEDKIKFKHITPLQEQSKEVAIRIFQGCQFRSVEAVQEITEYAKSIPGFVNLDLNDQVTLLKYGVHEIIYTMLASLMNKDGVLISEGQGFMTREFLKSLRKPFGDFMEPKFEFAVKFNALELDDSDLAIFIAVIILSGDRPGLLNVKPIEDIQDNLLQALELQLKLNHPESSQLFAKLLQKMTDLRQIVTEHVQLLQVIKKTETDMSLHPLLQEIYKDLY
Peroxisome proliferator-activated receptor gamma/Nuclear receptor coactivator 3, sequence (Q9Y6Q9 whole entry, further chain): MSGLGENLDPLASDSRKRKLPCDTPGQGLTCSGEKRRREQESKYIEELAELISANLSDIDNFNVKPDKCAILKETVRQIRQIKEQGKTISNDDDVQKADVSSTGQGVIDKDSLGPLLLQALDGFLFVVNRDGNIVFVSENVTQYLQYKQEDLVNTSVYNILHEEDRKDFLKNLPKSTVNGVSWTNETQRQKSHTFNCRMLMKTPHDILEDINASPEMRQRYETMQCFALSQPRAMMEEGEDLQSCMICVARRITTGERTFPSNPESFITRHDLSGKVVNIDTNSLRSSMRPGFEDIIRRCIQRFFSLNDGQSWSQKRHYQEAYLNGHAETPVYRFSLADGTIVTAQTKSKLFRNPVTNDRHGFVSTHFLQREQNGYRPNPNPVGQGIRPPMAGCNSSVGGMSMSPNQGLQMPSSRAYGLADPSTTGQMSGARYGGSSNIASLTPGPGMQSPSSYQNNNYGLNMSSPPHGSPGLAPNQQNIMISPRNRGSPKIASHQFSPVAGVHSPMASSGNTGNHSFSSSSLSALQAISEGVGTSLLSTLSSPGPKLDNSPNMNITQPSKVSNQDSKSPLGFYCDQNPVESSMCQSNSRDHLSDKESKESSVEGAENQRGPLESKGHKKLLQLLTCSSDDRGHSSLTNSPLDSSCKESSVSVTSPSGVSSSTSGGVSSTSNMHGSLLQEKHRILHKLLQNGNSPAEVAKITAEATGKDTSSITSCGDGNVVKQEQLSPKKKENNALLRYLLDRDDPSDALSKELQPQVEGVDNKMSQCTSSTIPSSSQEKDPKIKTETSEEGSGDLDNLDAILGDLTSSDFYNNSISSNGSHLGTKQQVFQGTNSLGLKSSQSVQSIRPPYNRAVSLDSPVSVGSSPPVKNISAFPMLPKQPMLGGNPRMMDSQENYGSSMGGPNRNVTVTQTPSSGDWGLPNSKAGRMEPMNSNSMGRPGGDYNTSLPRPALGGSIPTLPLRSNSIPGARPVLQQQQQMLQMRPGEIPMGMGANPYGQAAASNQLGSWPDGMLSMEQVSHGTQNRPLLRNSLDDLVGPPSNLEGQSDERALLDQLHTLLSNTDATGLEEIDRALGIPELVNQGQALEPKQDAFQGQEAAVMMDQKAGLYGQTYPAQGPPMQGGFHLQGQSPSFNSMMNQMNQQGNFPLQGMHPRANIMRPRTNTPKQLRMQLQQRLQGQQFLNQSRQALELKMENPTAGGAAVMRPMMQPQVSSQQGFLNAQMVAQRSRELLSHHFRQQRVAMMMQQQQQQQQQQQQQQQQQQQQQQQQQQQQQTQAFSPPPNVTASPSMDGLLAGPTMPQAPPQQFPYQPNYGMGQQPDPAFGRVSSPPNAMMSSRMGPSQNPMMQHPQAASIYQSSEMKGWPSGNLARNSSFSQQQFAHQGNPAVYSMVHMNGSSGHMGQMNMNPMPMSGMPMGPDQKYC
Peroxisome proliferator-activated receptor gamma/Nuclear receptor coactivator 2, sequence (P37231 whole entry, the tested form may be a part): as the sequence (P37231 whole entry) above
Peroxisome proliferator-activated receptor gamma/Nuclear receptor coactivator 2, sequence (Q15596 whole entry, further chain, the tested form may be a part): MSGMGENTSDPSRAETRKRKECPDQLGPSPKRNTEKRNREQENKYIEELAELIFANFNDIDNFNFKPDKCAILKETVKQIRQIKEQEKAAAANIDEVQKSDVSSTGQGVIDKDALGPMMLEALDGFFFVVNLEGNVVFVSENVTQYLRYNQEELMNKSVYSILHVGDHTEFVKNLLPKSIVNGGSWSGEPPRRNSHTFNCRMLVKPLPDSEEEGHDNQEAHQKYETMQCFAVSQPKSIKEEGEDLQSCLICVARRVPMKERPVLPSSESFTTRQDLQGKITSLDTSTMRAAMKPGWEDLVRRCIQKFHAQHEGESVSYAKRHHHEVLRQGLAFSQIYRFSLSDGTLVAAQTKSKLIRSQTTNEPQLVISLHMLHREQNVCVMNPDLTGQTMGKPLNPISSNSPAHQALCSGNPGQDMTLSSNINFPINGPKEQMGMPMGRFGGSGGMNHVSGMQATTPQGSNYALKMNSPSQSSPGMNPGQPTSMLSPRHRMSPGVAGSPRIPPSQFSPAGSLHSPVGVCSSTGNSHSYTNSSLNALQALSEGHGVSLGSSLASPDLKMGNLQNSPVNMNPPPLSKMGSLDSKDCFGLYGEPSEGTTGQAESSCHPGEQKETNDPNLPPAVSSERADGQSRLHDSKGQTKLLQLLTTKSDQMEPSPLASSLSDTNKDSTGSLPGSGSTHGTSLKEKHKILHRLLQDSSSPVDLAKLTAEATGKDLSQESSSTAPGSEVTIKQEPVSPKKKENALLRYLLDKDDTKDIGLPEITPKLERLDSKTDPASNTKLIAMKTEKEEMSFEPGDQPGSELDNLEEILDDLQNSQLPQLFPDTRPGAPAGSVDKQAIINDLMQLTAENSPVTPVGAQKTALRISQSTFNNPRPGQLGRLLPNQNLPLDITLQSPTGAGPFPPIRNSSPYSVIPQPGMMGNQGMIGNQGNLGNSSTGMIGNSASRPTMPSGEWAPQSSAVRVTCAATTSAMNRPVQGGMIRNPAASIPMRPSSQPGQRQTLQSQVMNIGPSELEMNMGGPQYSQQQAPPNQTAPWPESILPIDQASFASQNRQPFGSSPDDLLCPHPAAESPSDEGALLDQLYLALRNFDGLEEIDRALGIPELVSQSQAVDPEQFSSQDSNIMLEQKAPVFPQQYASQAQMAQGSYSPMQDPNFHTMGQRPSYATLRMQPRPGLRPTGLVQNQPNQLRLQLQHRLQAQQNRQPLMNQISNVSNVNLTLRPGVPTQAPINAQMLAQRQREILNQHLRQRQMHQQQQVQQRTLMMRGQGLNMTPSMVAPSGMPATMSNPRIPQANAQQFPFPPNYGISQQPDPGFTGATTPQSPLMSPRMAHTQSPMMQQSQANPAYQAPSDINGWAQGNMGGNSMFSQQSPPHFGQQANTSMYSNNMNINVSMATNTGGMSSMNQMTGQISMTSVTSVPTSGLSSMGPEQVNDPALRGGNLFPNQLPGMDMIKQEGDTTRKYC

SMILES: Cc1cc(-c2ccc(Br)s2)nc(-n2cccc2)n1
EC50 [6]: > 79.4 µM (not active) | EC50 [7]: > 79.4 µM (inactive) | EC50 [8]: 19.3 µM (not active)

SMILES: Cn1cc[n+](C)c1P(=S)(c1ccccc1)c1ccccc1
EC50 [3]: 0.237 µM (active)

SMILES: CCC(c1nnnn1CCOC)N(Cc1ccc(C)cc1)Cc1cc2cc(OC)ccc2[nH]c1=O (stereo not given)
EC50 [9]: > 100 µM (inactive)

SMILES: O=C(NCc1ccccc1CN1CCCCC1)c1ccccc1N1CCCC1=O
IC50 [10]: 4.48 µM (active) | IC50 [11]: 4.58 µM (active)

More lines, now with the values ahead:

IC50 [1]: > 100 µM (inactive) | IC50 [2]: > 100 µM (inactive)
SMILES: COc1ccc(F)cc1S(=O)(=O)Nc1ccc2ccccc2c1

EC50 [3]: 4.73 µM (active)
SMILES: O=C(CC1C(=O)NCCN1Cc1cccc(Oc2ccccc2)c1)NCCc1ccccn1 (stereo not given)

IC50 [4]: 9.23 µM (active) | IC50 [5]: 10.5 µM (active) | IC50 (Bcl-2-related protein A1): > 20 µM (inactive)
SMILES: CCOc1ccc(NS(=O)(=O)c2cc(C(=O)NCCCN3CCOCC3)ccc2C)cc1

IC50 [1]: 3.34 µM (active) | IC50 [2]: 14.8 µM (active)
SMILES: COc1ccccc1-c1nc(SCC(=O)c2ccc(O)c(O)c2)n[nH]1
